# Laboratory results as given in patent EP0712936B1, “LOW-MOLECULAR DNA FROM STURGEON MILT, A METHOD OF OBTAINING THE DNA AND A PHARMACEUTICAL PREPARATION BASED ON IT” (NAUCHNO-PROIZVODSTVENNOE PREDPRIYATIE "FARMEK", priority 1993, dated 1994).
# Like-named read-outs stand apart in the source and are kept apart here.
# Legend:
# [1] = system: HIV; format: cell-based; settings: comparison preparation, no ratio
# Method: (§1) The antiviral activity of preparations was assessed by the methods recommended for this purpose by the World Health Organization (20, 21). For this purpose we used the cultures of inoculated cell lines SEM and MT-4. The cells were cultured at a concentration of (0.03-0.05)x10^6 cells per 1 ml of PPM1 1640 with 10-% fetal serum of calves, 300 mg/ml of glutamine, 100 mkg/ml of heptamicine and grown in the form of a suspension. The vital activity of cells was checked by coloring them with a 0.4-% solution of trypan blue. The virus sources were strains HIV/IVS and HIV - 1 HTLV/IIIB.
# (§2) The suspension of cells was placed into 24-hole boards, treated with different doses of the preparation and infected with HIV. The multiplicity of infection was 0.01 TCD50 per cell. Then the cultures were incubated at 37 C in the atmosphere containing 5% CO2 at a moisture content of 98% for 5-7 days before determining the cytopathic effect of the virus on the cell culture.
# A culture of inoculated cells, line CEMSS and MT-4 was used in the experiment. […]
# (§3) Then the cultures were incubated at 37 C in the atmosphere containing 5% of CO at a moisture content of 98% for 5-7 days before determining the cytopathic effect of the virus on the cell culture. The formation of viral antigen was assessed by an immunofermental analysis.
# [2] = system: HIV; format: cell-based; settings: comparison preparation, no ratio; remark: listed apart in the source
# Method: as §1, §2
# The formation of viral antigen was assessed by immuno-fermental analysis.
# as §3
# [3] = system: HIV; experiment: anti-HIV activity at different modes of administration, quantity of syncytia; format: in vivo; settings: placebo 100
# [4] = system: nonlinear white mice
structure (smiles),measurement,setting,value
"Cc1cn([C@H]2C[C@H](N=[N+]=[N-])[C@@H](CO)O2)c(=O)[nH]c1=O [AZT (azidothymidine), 3-azi-3-desoxythymidine]","No of syncytia, % of virus control",[1],8%
same,Data of immuno-enzyme analysis,[2],0.1 mg/mg
same,"Data of immuno-enzyme analysis, optical density",[2],0.091
same,"Qty of syncytia, %",[3]; intracerebral,10%
same,"Qty of syncytia, %",[3]; intranasal,75%
same,quantity of survived mice / quantity of infected mice,"[4]; intraabdominal, 5 mg/kg",6/6
same,quantity of survived mice / quantity of infected mice,"[4]; intraabdominal, 10 mg/kg",6/6
same,quantity of survived mice / quantity of infected mice,"[4]; intraabdominal, 20 mg/kg",6/6
same,quantity of survived mice / quantity of infected mice,"[4]; intraabdominal, 35 mg/kg",6/6
same,quantity of survived mice / quantity of infected mice,"[4]; intraabdominal, 50 mg/kg",6/6
same,quantity of survived mice / quantity of infected mice,"[4]; intraabdominal, 75 mg/kg",6/6
same,mortality of mice,"[4]; intracerebral introduction, doses from 10 to 50 mg/kg",50%
same,quantity of survived mice / quantity of infected mice,"[4]; intracerebral, 5 mg/kg",6/6
same,quantity of survived mice / quantity of infected mice,"[4]; intracerebral, 10 mg/kg",6/6
same,quantity of survived mice / quantity of infected mice,"[4]; intracerebral, 20 mg/kg",6/6
same,quantity of survived mice / quantity of infected mice,"[4]; intracerebral, 35 mg/kg",6/6
same,quantity of survived mice / quantity of infected mice,"[4]; intracerebral, 50 mg/kg",6/6
same,quantity of survived mice / quantity of infected mice,"[4]; intracerebral, 75 mg/kg",6/6
same,quantity of survived mice / quantity of infected mice,"[4]; intranasal, 5 mg/kg",6/6
same,quantity of survived mice / quantity of infected mice,"[4]; intranasal, 10 mg/kg",6/6
same,quantity of survived mice / quantity of infected mice,"[4]; intranasal, 20 mg/kg",6/6
same,quantity of survived mice / quantity of infected mice,"[4]; intranasal, 35 mg/kg",6/6
same,quantity of survived mice / quantity of infected mice,"[4]; intranasal, 50 mg/kg",6/6
same,quantity of survived mice / quantity of infected mice,"[4]; intranasal, 75 mg/kg",6/6
same,quantity of survived mice / quantity of infected mice,"[4]; subcutaneous, 5 mg/kg",6/6
same,quantity of survived mice / quantity of infected mice,"[4]; subcutaneous, 10 mg/kg",6/6
same,quantity of survived mice / quantity of infected mice,"[4]; subcutaneous, 20 mg/kg",6/6
same,quantity of survived mice / quantity of infected mice,"[4]; subcutaneous, 35 mg/kg",6/6
same,quantity of survived mice / quantity of infected mice,"[4]; subcutaneous, 50 mg/kg",6/6
same,quantity of survived mice / quantity of infected mice,"[4]; subcutaneous, 75 mg/kg",6/6
